Consider seven molecules from ChEMBL document CHEMBL5303573, “Mapping human microbiome drug metabolism by gut bacteria and their genes” (Nature, 2019).

For series [1] the following is noted: roseburia intestinalis, 12 h, 2 µM.
Description: The drug is tested on Roseburia intestinalis strain: L1-82 for biotransformation. The drug concentrations were measured before and after a 12-h incubation by liquid-chromatography-coupled mass spectrometry (LC–MS)
A short description of series [2]: The drug is tested on Providencia rettgeri strain: DSM1131 for biotransformation. The drug concentrations were measured before and after a 12-h incubation by liquid-chromatography-coupled mass spectrometry (LC–MS). In kind it is ADME. On the set-up: dose 2 uM, timepoint 0 vs 12 hours. The note with it: 2 µM.
The conditions of series [3]: bacteroides fragilis, 12 h, 2 µM.
Description: The drug is tested on Bacteroides fragilis strain: NCTC 9343 for biotransformation. The drug concentrations were measured before and after a 12-h incubation by liquid-chromatography-coupled mass spectrometry (LC–MS)
For series [4] the following is noted: segatella copri, 12 h, 2 µM.
Description: The drug is tested on Prevotella copri strain: DSM18205 for biotransformation. The drug concentrations were measured before and after a 12-h incubation by liquid-chromatography-coupled mass spectrometry (LC–MS)
The nature of series [5]: The drug is tested on Collinsella intestinalis strain: DSM13280 for biotransformation. The drug concentrations were measured before and after a 12-h incubation by liquid-chromatography-coupled mass spectrometry (LC–MS). The note with it: 2 µM.
Series [6] can be described thus: The drug is tested on Bacteroides dorei strain: DSM17855 for biotransformation. The drug concentrations were measured before and after a 12-h incubation by liquid-chromatography-coupled mass spectrometry (LC–MS). The note with it: phocaeicola dorei, 2 µM.
A short description of series [7]: The drug is tested on Bacteroides fragilis strain: HMW615 for biotransformation. The drug concentrations were measured before and after a 12-h incubation by liquid-chromatography-coupled mass spectrometry (LC–MS). The following applies: 2 µM.
A short description of series [8]: The drug is tested on Bacteroides xylanisolvens strain: DSM18836 for biotransformation. The drug concentrations were measured before and after a 12-h incubation by liquid-chromatography-coupled mass spectrometry (LC–MS). The following applies: 2 µM.
The nature of series [9]: The drug is tested on Coprococcus comes strain: ATCC27758 for biotransformation. The drug concentrations were measured before and after a 12-h incubation by liquid-chromatography-coupled mass spectrometry (LC–MS). Type of series: ADME. On the set-up: dose 2 uM, timepoint 0 vs 12 hours. The note with it: 2 µM.
The nature of series [10]: The drug is tested on Bacteroides fragilis strain: HMW610 for biotransformation. The drug concentrations were measured before and after a 12-h incubation by liquid-chromatography-coupled mass spectrometry (LC–MS). The following applies: 2 µM.
The nature of series [11]: The drug is tested on Bacteroides uniformis strain: ATCC8492 for biotransformation. The drug concentrations were measured before and after a 12-h incubation by liquid-chromatography-coupled mass spectrometry (LC–MS). The note with it: 2 µM.
A short description of series [12]: The drug is tested on Bacteroides ovatus strain: ATCC8483 for biotransformation. The drug concentrations were measured before and after a 12-h incubation by liquid-chromatography-coupled mass spectrometry (LC–MS). The note with it: 2 µM.
The conditions of series [13]: bacteroides thetaiotaomicron, 12 h, 2 µM.
Description: The drug is tested on Bacteroides thetaiotaomicron strain: 3731 for biotransformation. The drug concentrations were measured before and after a 12-h incubation by liquid-chromatography-coupled mass spectrometry (LC–MS)
The nature of series [14]: The drug is tested on Anaerotruncus colihominis strain: DSM17241 for biotransformation. The drug concentrations were measured before and after a 12-h incubation by liquid-chromatography-coupled mass spectrometry (LC–MS). The note with it: 2 µM.
Series [15] in a line: The drug is tested on Bacteroides caccae strain: ATCC43185 for biotransformation. The drug concentrations were measured before and after a 12-h incubation by liquid-chromatography-coupled mass spectrometry (LC–MS). The following applies: 2 µM.
Series [16] can be described thus: The drug is tested on Ruminococcus torques strain: ATCC27756 for biotransformation. The drug concentrations were measured before and after a 12-h incubation by liquid-chromatography-coupled mass spectrometry (LC–MS). Type of series: ADME. On the set-up: dose 2 uM, timepoint 0 vs 12 hours. The following applies: 2 µM.
Series [17] in a line: The drug is tested on Eubacterium hallii strain: DSM3353 for biotransformation. The drug concentrations were measured before and after a 12-h incubation by liquid-chromatography-coupled mass spectrometry (LC–MS). The note with it: anaerobutyricum hallii, 2 µM.
Series [18] in a line: The drug is tested on Blautia luti strain: DSM14534 for biotransformation. The drug concentrations were measured before and after a 12-h incubation by liquid-chromatography-coupled mass spectrometry (LC–MS). In kind it is ADME. Further details: dose 2 uM, timepoint 0 vs 12 hours. The following applies: 2 µM.
A short description of series [19]: The drug is tested on Bifidobacterium longum subsp. Infantis strain: CCUG52486 for biotransformation. The drug concentrations were measured before and after a 12-h incubation by liquid-chromatography-coupled mass spectrometry (LC–MS). The following applies: 2 µM.
Series [20] can be described thus: The drug is tested on Clostridium sporogenes strain: ATCC15579 for biotransformation. The drug concentrations were measured before and after a 12-h incubation by liquid-chromatography-coupled mass spectrometry (LC–MS). The note with it: 2 µM.

In the case of `CCCCC(=O)O[C@]1(C(=O)CO)[C@@H](C)C[C@H]2[C@@H]3CCC4=CC(=O)C=C[C@]4(C)[C@@]3(F)[C@@H](O)C[C@@]21C` [BETAMETHASONE VALERATE], the “Bacterial Biotransformation” value is listed as “Compound NOT metabolized” in series [1]; “Compound NOT metabolized” in [2]; “Compound metabolized” in [3]; “Compound NOT metabolized” in [4]; “Compound NOT metabolized” in series [5]; “Compound metabolized” in series [6]. The “Bacterial Biotransformation” value was “Compound metabolized” in series [7]; “Compound metabolized” in [8]; “Compound metabolized” in series [9]; “Compound metabolized” in series [10]; “Compound metabolized” in [11]; “Compound NOT metabolized” in series [12]. In addition, the figures for the “Bacterial Biotransformation” value in series [13] and in series [14] were “Compound metabolized” and “Compound NOT metabolized”, respectively.
On to `C[C@@H]1C[C@H]2[C@@H]3CCC4=CC(=O)C=C[C@]4(C)[C@@]3(F)[C@@H](O)C[C@]2(C)[C@@]1(O)C(=O)CO` [DEXAMETHASONE], for which the “Bacterial Biotransformation” value in series [15], in series [2], in [16], in [4], in series [17] and in [5] was “Compound NOT metabolized” each time. Besides, the “Bacterial Biotransformation” value is “Compound metabolized” in [6]; “Compound metabolized” in series [8]; “Compound NOT metabolized” in series [9]; “Compound metabolized” in [10]; “Compound NOT metabolized” in series [18]; “Compound metabolized” in series [11]. Further, the “Bacterial Biotransformation” value in [13] is “Compound NOT metabolized”.
Consider `CC(=O)O[C@H]1C(=O)[C@@]2(C)[C@H]([C@H](OC(=O)c3ccccc3)[C@]3(O)C[C@H](OC(=O)[C@H](O)[C@@H](NC(=O)c4ccccc4)c4ccccc4)C(C)=C1C3(C)C)[C@]1(OC(C)=O)CO[C@@H]1C[C@@H]2O` [PACLITAXEL], for which the “Bacterial Biotransformation” value in [15], in series [1], in [16], in series [4], in series [17] and in series [5] was “Compound NOT metabolized” in each case. In addition, the “Bacterial Biotransformation” value in series [7] is “Compound NOT metabolized”; in series [8], “Compound metabolized”; in series [9], “Compound NOT metabolized”; in series [18], “Compound NOT metabolized”; in [11] it was “Compound metabolized”; in series [19], “Compound NOT metabolized”. The “Bacterial Biotransformation” value in series [20], in [13] and in series [14] was “Compound NOT metabolized” each time.
For `C=C[C@H]1CN2CC[C@H]1C[C@H]2[C@H](O)c1ccnc2ccc(OC)cc12.C=C[C@H]1CN2CC[C@H]1C[C@H]2[C@H](O)c1ccnc2ccc(OC)cc12.O.O.O=S(=O)(O)O` [QUININE SULFATE], the “Bacterial Biotransformation” value in [15], in series [1], in [2], in series [16], in series [4] and in series [17] was “Compound NOT metabolized” throughout. Also, the “Bacterial Biotransformation” value in series [5], in [7], in [8], in [9], in series [18] and in [11] was “Compound NOT metabolized” each time. For the same molecule, the “Bacterial Biotransformation” value in [12], in series [19] and in [14] was “Compound NOT metabolized” throughout.
Take `CCC(=O)NCC[C@@H]1CCc2ccc3c(c21)CCO3` [RAMELTEON]: the “Bacterial Biotransformation” value in series [2] is on record as “Compound NOT metabolized”; in [16] it was “Compound NOT metabolized”; in series [3], “Compound metabolized”; in series [4] it was “Compound metabolized”; in series [17], “Compound NOT metabolized”; in series [5], “Compound NOT metabolized”. Further, the “Bacterial Biotransformation” value in series [6] was “Compound metabolized”; in series [8], “Compound metabolized”; in series [9], “Compound NOT metabolized”; in series [10] it was “Compound metabolized”; in series [18] it was “Compound NOT metabolized”; in series [11], “Compound metabolized”. Also, the “Bacterial Biotransformation” value in series [19] is reported as “Compound NOT metabolized”; in [20] it was “Compound NOT metabolized”; in series [13], “Compound metabolized”; in [14], “Compound NOT metabolized”.
On to `O=C(NC(Cc1cc(=O)[nH]c2ccccc12)C(=O)O)c1ccc(Cl)cc1` (stereo not given) [REBAMIPIDE], for which the “Bacterial Biotransformation” value in [15], in series [1], in series [2], in series [16], in [3] and in series [4] was “Compound NOT metabolized” each time. Moreover, the “Bacterial Biotransformation” value in series [17] was “Compound NOT metabolized”; in series [5], “Compound NOT metabolized”; in [6] it was “Compound metabolized”; in series [7], “Compound metabolized”; in series [8] it was “Compound metabolized”; in series [9], “Compound NOT metabolized”. The “Bacterial Biotransformation” value in series [10] is listed as “Compound metabolized”; in series [18], “Compound NOT metabolized”; in series [11], “Compound metabolized”; in [12] it was “Compound NOT metabolized”; in series [19] it was “Compound NOT metabolized”; in series [13], “Compound NOT metabolized”. The “Bacterial Biotransformation” value in series [14] is “Compound NOT metabolized”.
As for `O=C(O[C@H]1C[C@H]2CC[C@@H](C1)[N+]21CCCC1)C(O)(c1ccccc1)c1ccccc1.[Cl-]` [TROSPIUM CHLORIDE], the “Bacterial Biotransformation” value in series [15], in series [1], in [2], in [16], in [3] and in series [4] was “Compound NOT metabolized” throughout. Further, the “Bacterial Biotransformation” value in [17], in series [5], in [6], in series [8], in series [9] and in [18] was “Compound NOT metabolized” each time. Further, the “Bacterial Biotransformation” value in [11], in series [12], in [19], in series [20], in series [13] and in series [14] was “Compound NOT metabolized” each time.
